Measured values as given in ChEMBL document CHEMBL5252565, “Advances in research on 3C-like protease (3CLpro) inhibitors against SARS-CoV-2 since 2020” (RSC Med Chem, 2023).

Legend:
[1] = test system: SARS-CoV-2; experiment: Antiviral activity against SARS-CoV-2 infected in African green monkey Vero E6 cells assessed as reduction in infection measured after 24 hrs by Plaque assay; assay type: functional, organism-based; settings: Severe acute respiratory syndrome coronavirus 2, Vero C1008, 24 h
[2] = Oral bioavailability in Sprague-Dawley rat by LC-MS/MS analysis; assay type: ADME, organism-based; settings: in vivo
[3] = biological target: T1, Replicase polyprotein 1ab (Severe acute respiratory syndrome coronavirus 2, UniProt P0DTD1); experiment: Inhibition of SARS-CoV-2 HKU-001a 3CL protease
[4] = Oral bioavailability in mouse by LC-MS/MS analysis; assay type: ADME, organism-based; settings: in vivo
[5] = Oral bioavailability in Beagle dog by LC-MS/MS analysis; assay type: ADME, organism-based, Canis lupus familiaris; settings: in vivo
[6] = biological target: T2, Caspase-3 (Homo sapiens, UniProt P42574); experiment: Inhibition of human caspase 3 using Z-Phe-Arg-AMC as substrate incubated for 30 mins by FRET assay
T2 sequence (P42574 whole entry): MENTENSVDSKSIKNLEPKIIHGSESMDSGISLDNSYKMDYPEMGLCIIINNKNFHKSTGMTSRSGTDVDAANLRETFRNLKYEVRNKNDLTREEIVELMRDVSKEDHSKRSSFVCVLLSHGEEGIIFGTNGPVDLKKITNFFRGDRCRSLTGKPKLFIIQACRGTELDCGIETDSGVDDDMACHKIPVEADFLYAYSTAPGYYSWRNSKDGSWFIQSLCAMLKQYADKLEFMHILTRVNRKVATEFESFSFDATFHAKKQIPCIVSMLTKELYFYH

[7] = test system: SARS-CoV-2; experiment: Antiviral activity against SARS-CoV-2 infected in […] Caco-2 cells; assay type: functional, organism-based; settings: Severe acute respiratory syndrome coronavirus 2, Caco-2
[8] = test system: SARS-CoV-2; experiment: Antiviral activity against SARS-CoV-2 infected in African green monkey Vero E6 cells; assay type: functional, organism-based; settings: Severe acute respiratory syndrome coronavirus 2, Vero C1008
[9] = biological target: Trypsin (Homo sapiens, UniProt P07477+P07478+P35030); experiment: Inhibition of human Trypsin using Z-Phe-Arg-AMC as substrate incubated for 30 mins by FRET assay; assay type: protein assay
[10] = biological target: T3, Calpain1/2 (Homo sapiens, UniProt P17655+P07384); experiment: Inhibition of human calpain using Z-Phe-Arg-AMC as substrate incubated for 30 mins by FRET assay; assay type: protein assay
T3 sequence (P17655 whole entry): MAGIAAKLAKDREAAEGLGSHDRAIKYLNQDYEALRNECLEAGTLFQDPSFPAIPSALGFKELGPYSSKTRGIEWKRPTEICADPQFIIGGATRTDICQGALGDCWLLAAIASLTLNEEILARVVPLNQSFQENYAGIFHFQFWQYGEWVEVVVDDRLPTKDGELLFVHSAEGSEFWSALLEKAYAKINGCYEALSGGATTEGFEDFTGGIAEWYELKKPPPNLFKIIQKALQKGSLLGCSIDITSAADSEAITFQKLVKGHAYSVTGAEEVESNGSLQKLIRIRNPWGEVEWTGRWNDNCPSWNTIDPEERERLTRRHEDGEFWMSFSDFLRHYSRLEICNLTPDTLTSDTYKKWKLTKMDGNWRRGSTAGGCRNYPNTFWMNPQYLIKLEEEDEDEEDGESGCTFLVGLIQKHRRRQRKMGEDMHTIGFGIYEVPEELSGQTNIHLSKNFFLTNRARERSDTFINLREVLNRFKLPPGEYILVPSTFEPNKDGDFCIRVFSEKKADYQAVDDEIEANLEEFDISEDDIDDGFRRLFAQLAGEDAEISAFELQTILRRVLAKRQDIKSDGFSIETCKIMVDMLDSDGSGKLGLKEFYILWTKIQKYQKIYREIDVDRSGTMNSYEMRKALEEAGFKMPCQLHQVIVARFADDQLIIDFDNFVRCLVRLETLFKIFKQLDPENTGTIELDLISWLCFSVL
T3 sequence (P07384 whole entry): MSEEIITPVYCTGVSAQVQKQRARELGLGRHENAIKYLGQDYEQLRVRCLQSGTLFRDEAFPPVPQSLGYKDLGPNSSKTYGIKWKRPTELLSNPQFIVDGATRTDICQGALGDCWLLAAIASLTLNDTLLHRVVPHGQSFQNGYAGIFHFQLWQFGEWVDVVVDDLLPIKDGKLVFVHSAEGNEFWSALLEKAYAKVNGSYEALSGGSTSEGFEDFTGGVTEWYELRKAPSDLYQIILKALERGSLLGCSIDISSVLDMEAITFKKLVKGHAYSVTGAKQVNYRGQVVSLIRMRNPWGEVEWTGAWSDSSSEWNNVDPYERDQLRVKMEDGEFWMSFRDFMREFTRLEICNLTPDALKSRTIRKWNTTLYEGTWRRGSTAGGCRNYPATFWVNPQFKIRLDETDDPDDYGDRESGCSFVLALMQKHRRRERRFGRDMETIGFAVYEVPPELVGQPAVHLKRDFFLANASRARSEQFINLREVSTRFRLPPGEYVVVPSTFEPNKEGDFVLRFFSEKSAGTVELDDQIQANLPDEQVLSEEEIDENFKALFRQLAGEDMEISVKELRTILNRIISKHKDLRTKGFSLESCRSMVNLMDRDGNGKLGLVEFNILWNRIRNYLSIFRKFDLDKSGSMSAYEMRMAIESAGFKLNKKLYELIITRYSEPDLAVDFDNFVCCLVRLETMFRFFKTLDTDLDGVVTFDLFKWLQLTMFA

[11] = Inhibition of human cathepsin using Z-Phe-Arg-AMC as substrate incubated for 30 mins by FRET assay
[12] = biological target: T1, Replicase polyprotein 1ab; experiment: Inhibition of SARS-CoV-2 3CL protease
[13] = biological target: T1, Replicase polyprotein 1ab; experiment: Inhibition of SARS-CoV-2 3CL protease expressed in escherichia coli measured after 24 hrs by SDS-PAGE
[14] = organism: Homo sapiens; experiment: Antiviral activity against SARS-CoV-2 infected in human A549-ACE2 cells by immunofluorescence microscopic technique; assay type: functional, cell-based
[15] = organism: Homo sapiens; experiment: Antiviral activity against SARS-CoV-2 infected in human A549-ACE2 cells; assay type: functional, cell-based

O=C[C@H](C[C@@H]1CCNC1=O)NC(=O)[C@H](Cc1cccc(F)c1)NC(=O)c1cc2ccccc2[nH]1
IC50 [1]: 0.72 µM

[2H][C@](C(=O)N[C@@H](C)c1ccc(F)cc1)(c1cccnc1)N(C(=O)C(C)=O)c1ccc2c(c1)oc1ccccc12
bioavailability [2]: 31.9%
IC50 [3]: 0.0081 µM
bioavailability [4]: 92.9%
bioavailability [5]: 85.7%

C[C@H](NC(=O)[C@@H](c1cccnc1)N(C(=O)C(Cl)Cl)c1ccc(-c2ccccc2)cc1)c1ccccc1
IC50 [6]: > 20 µM
EC50 [7]: 2.05 µM
EC50 [8]: 0.9 µM
IC50 [9]: > 20 µM
IC50 [10]: > 20 µM
IC50 [11]: > 20 µM

O=C[C@H](C[C@@H]1CCNC1=O)NC(=O)[C@@H]1[C@H]2CCC[C@H]2CN1C(=O)CCc1cc(F)cc(F)c1
IC50 [12]: 7.6 µM

CNC(=O)c1cc(Br)cc([N+](=O)[O-])c1N[C@@H]1CCCC[C@@H]1NC(=O)c1cccc2ccccc12
IC50 [13]: 0.072 µM
EC50 [14]: 0.012 µM

Cc1ccc(NC(=O)c2ccc(CN3CCN(C)CC3)cc2)cc1Nc1nc(-c2cccnc2)cs1 [MASITINIB]
EC50 [15]: 3.2 µM
